# Experimental data reported in US5306721A (priority 1990, dated 1994).
# Like-named read-outs stand apart in the source and are kept apart here.
# Legend:
# [1] = test system: SE-specific IgM and IgG plaque forming cells (PFC); assay: Plaque test (HPT) for SE-specific IgM and IgG plaque forming cells, immunostimulatory action; type: in vivo, mouse (inbred CBA strain); conditions: 2.0 mg/kg daily over 5 days; control 100%; p<0.001
# Protocol: The testing of immunostimulatory effects was also conducted on the mouse (inbred CBA strain) by detection through the plaque test for detecting SE (sheep erythrocyte) -specific immunoglobulin M (IgM) and immunoglobulin G (IgG) PFC (plaque forming cells), and by the rosette test.
# 2.1 Plaque Test for the Detection of SE-Specific IgM and IgG Plaque Forming Cells (PFC)
# To check the immunostimulatory effects, the humoral immune response effect of compounds of Formula I was also investigated in mice of the inbred CBA strain and determined by means of the haemolysis plaque test (HPT). This technique permits the PFC, which produce IgM and IgG antibodies, to be determined quantitatively and separately. The immunization with sheep erythrocytes (SE) was carried out on day 0, the substance was administered orally in a daily dose of 1×10^-5 moles/kg of body weight; on days -1 to +3 relative to the determination of the IgM PFC, or on days +1 to +5 relative to the determination of the IgG PFC.
# It becomes clear that a daily treatment extending over 5 days with the compound of Example 1, produces a highly significant increase in the SE-specific IgM and IgG PFC in the CBA mouse.
# [2] = test system: SE-specific IgM and IgG plaque forming cells (PFC); assay: Immunorestorative efficacy: plaque test in cyclophosphamide (CY) damaged animals; type: in vivo, mouse (CBA inbred); conditions: for IgM PFC/10^6, CY + compound / IgG PFC/10^6 spleen cells, CY + compound: CY 150 mg/kg, oral 2 mg/kg
# Protocol: The detection of immunorestorative effects after injury to the immune system was carried out also by the plaque test for detecting SE-specific IgM, and IgG PFC, and by the rosette test.
# The determination of the immunorestorative activity of compounds of Formula I was conducted by first damaging the immune system of the experimental animals (CBA inbred mice) by chemotherapy with cyclophosphamide, carrageenan, iloprost, or by radiation. The test was carried the plaque test for detecting SE-specific IgM and IgG PFC, and the rosette test.
# The examination of the immunorestorative effects of compounds of Example 1 was carried out by damaging the immune system of the experimental animals by cyclophosphamide (CY), and subsequent testing by sheep erythrocycle SE-specific plaque forming cells PFC.
# The immune system of the animals was damaged by the injection of 150 mg/kg of body weight on day -1 before the immunization for both the test and the control groups. Immunization was carried out by the intraperitoneal injection of 4×10^8 SE in 0.2 ml of phosphate buffered saline (PBS) solution.
# Each of the experimental animals of the test group received by oral administration 2 mg of the compound of Example 1 per kg of body weight on the days -2, -1, 0, +1 and +2. The SE-specific IgM and IgG PFC was detected by the plaque test.
# Vaccinia Lister [3] = assay: microbe, parasite or virus in culture; type: cell-based, vaccinia virus
# Influenza A/WSN [4] = assay: Grading replication test on chicken embryo cells, influenza; type: cell-based; conditions: Influenza A virus
# Herpes simplex type 1 = assay: microbe, parasite or virus in culture; type: cell-based, herpes simplex virus
# [5] = test system: Vesicular Stomatitis Indiana; assay: microbe, parasite or virus in culture; type: cell-based, vesicular stomatitis virus
# coxsackie A 9 virus = assay: Antiviral activity against coxsackie A 9 virus; type: cell-based
# adenovirus type 4 = assay: Antiviral activity against adenovirus type 4; type: cell-based
# Vaccinia Lister [6] = assay: microbe, parasite or virus in culture; type: cell-based; conditions: Orthopoxvirus vaccinia
# [7] = test system: Herpes simplex type 1 Kupka; assay: Grading replication test on RH cell line, herpes simplex type 1 Kupka; type: cell-based, herpes simplex virus; conditions: RH cells
# Vaccinia Lister [8] = assay: microbe, parasite or virus in culture; type: cell-based; conditions: Orthopoxvirus vaccinia, in Gallus gallus, read-out: Plaque reduction in % of the virus control
# Influenza A/WSN [9] = assay: Plaque reduction test, influenza; type: cell-based; conditions: Influenza A virus, primary chicken embryo cells, read-out: Plaque reduction in % of the virus control
# [10] = test system: Vesicular Stomatitis Indiana; assay: microbe, parasite or virus in culture; type: cell-based; conditions: in Gallus gallus, read-out: Plaque reduction in % of the virus control
# [11] = Orthopoxvirus vaccinia, in Gallus gallus, read-out: Inhibition of virus yield
# [12] = Orthopoxvirus vaccinia, in Gallus gallus, read-out: Lowering the virus yield
# [13] = Vesicular stomatitis virus, in Gallus gallus, read-out: Lowering the virus yield
# [14] = read-out: Inhibition of virus yield
# [15] = read-out: Lowering the virus yield
smiles,measurement,setting,value
"O=c1[nH]c2ccccc2c(=O)n1CCS [Example 1, 3-(2-mercapto-ethyl)-quinazoline-2,4(1H,3H)-dione]",number of IgG PFC relative to control,[1],497%
same,number of IgM PFC relative to control,[1],352%
same,number of IgG PFC in CY-suppressed animals,"[2]; 6th and 7th days, p<0.05 and p<0.01",significantly increases the number of IgG PFC
same,recovery of the immunological reactivity (IgM PFC),"[2]; CY-damaged animals, significant on the 5th day, p<0.05",measurable recovery of the immunological reactivity
same,"IgM PFC/10^6, CY + compound","[2]; day of testing +3, CY only control 37.5 ± 27.1",31.7 ± 26.6 PFC/10^6
same,"IgM PFC/10^6, CY + compound","[2]; day of testing +4, CY only control 49.7 ± 32.9",59.8 ± 26.6 PFC/10^6
same,"IgM PFC/10^6, CY + compound","[2]; day of testing +5, CY only control 56.8 ± 27.6, p<0.05",125.2 ± 32.7 PFC/10^6
same,"IgG PFC/10^6 spleen cells, CY + compound","[2]; day of testing +6, CY only control 26.7 ± 12.1, p<0.05",88.3 ± 24.8 PFC/10^6 spleen cells
same,"IgM PFC/10^6, CY + compound","[2]; day of testing +6, CY only control 74.7 ± 73.4",47.8 ± 32.7 PFC/10^6
same,"IgG PFC/10^6 spleen cells, CY + compound","[2]; day of testing +7, CY only control 46.7 ± 16.3, p<0.01",128.3 ± 28.6 PFC/10^6 spleen cells
same,"IgG PFC/10^6 spleen cells, CY + compound","[2]; day of testing +8, CY only control 63.3 ± 24.2",58.3 ± 43.6 PFC/10^6 spleen cells
same,inhibition at 31.25 µM,Vaccinia Lister [3]; [11],99%
same,inhibition at 62.5 µM,Vaccinia Lister [3]; [11],99.7%
same,inhibition at 125 µM,Vaccinia Lister [3]; [11],100%
same,inhibition at 250 µM,Vaccinia Lister [3]; [11],> 100%
same,log reduction at 31.25 µM,Vaccinia Lister [3]; [12],1
same,log reduction at 62.5 µM,Vaccinia Lister [3]; [12],2.5
same,log reduction at 125 µM,Vaccinia Lister [3]; [12],4
same,log reduction at 250 µM,Vaccinia Lister [3]; [12],5.67
same,therapeutic index,"Vaccinia Lister [3]; ratio of maximum tolerated dose to minimum effective dose, vaccinia virus",8
same,inhibition at 31.25 µM,"Influenza A/WSN [4]; 31.25 μmoles/l, read-out: Inhibition of virus yield",99.5%
same,log reduction at 31.25 µM,"Influenza A/WSN [4]; 31.25 μmoles/l, read-out: Lowering the virus yield",2.5
same,inhibition at 62.5 µM,"Influenza A/WSN [4]; 62.5 μmoles/l, read-out: Inhibition of virus yield",> 100%
same,log reduction at 62.5 µM,"Influenza A/WSN [4]; 62.5 μmoles/l, read-out: Lowering the virus yield",4.25
same,inhibition at 125 µM,"Influenza A/WSN [4]; 125 μmoles/l, read-out: Inhibition of virus yield",> 100%
same,log reduction at 125 µM,"Influenza A/WSN [4]; 125 μmoles/l, read-out: Lowering the virus yield",4.67
same,inhibition at 250 µM,"Influenza A/WSN [4]; 250 μmoles/l, read-out: Inhibition of virus yield",> 100%
same,log reduction at 250 µM,"Influenza A/WSN [4]; 250 μmoles/l, read-out: Lowering the virus yield",6.23
same,Inhibition of virus yield,Herpes simplex type 1,n.s.
same,log reduction at 125 µM,"Herpes simplex type 1; Human alphaherpesvirus 1, in Gallus gallus, read-out: Lowering the virus yield",0.33
same,inhibition at 250 µM,"Herpes simplex type 1; Human alphaherpesvirus 1, 250 μmoles/l, chicken embryo cells, read-out: Inhibition of virus yield",99%
same,log reduction at 250 µM,"Herpes simplex type 1; Human alphaherpesvirus 1, 250 μmoles/l, chicken embryo cells, read-out: Lowering the virus yield",1
same,Inhibition of virus yield,"[5]; 125 μmoles/l, chicken embryo cells, n.s. = not significant",n.s.
same,inhibition at 250 µM,"[5]; Vesicular stomatitis virus, in Gallus gallus, read-out: Inhibition of virus yield",99.9%
same,log reduction at 125 µM,[5]; [13],0.5
same,log reduction at 250 µM,[5]; [13],3
same,antiviral activity,coxsackie A 9 virus,did not have antiviral activity
same,antiviral activity,adenovirus type 4,did not have antiviral activity
same,inhibition at 31.25 µM,Vaccinia Lister [6]; [14],> 100%
same,inhibition at 62.5 µM,Vaccinia Lister [6]; [14],100%
same,inhibition at 125 µM,Vaccinia Lister [6]; [14],> 100%
same,inhibition at 250 µM,Vaccinia Lister [6]; [14],> 100%
same,log reduction at 31.25 µM,Vaccinia Lister [6]; [15],3.5
same,log reduction at 62.5 µM,Vaccinia Lister [6]; [15],4
same,log reduction at 125 µM,Vaccinia Lister [6]; [15],> 4
same,log reduction at 250 µM,Vaccinia Lister [6]; [15],> 4
same,Inhibition of virus yield,"[7]; 62.5 μmoles/l, n.s. = not significant",n.s.
same,log reduction at 62.5 µM,"[7]; Human alphaherpesvirus 1, 62.5 μmoles/l, read-out: Lowering the virus yield",0.75
same,inhibition at 125 µM,"[7]; Human alphaherpesvirus 1, 125 μmoles/l, read-out: Inhibition of virus yield",> 100%
same,log reduction at 125 µM,"[7]; Human alphaherpesvirus 1, 125 μmoles/l, read-out: Lowering the virus yield",5.5
same,inhibition at 250 µM,"[7]; Human alphaherpesvirus 1, 250 μmoles/l, read-out: Inhibition of virus yield",> 100%
same,log reduction at 250 µM,"[7]; Human alphaherpesvirus 1, 250 μmoles/l, read-out: Lowering the virus yield",6
same,inhibition at 31.25 µM,Vaccinia Lister [8],87%
same,inhibition at 62.5 µM,Vaccinia Lister [8],92%
same,inhibition at 125 µM,Vaccinia Lister [8],96%
same,inhibition at 250 µM,Vaccinia Lister [8],100%
same,inhibition at 31.25 µM,Influenza A/WSN [9]; 31.25 μmoles/l,85%
same,inhibition at 62.5 µM,Influenza A/WSN [9]; 62.5 μmoles/l,92%
same,inhibition at 125 µM,Influenza A/WSN [9]; 125 μmoles/l,98%
same,inhibition at 250 µM,Influenza A/WSN [9]; 250 μmoles/l,100%
same,inhibition at 62.5 µM,[10],0%
same,inhibition at 125 µM,[10],15%
same,inhibition at 250 µM,[10],45%
